In article PMC10638516 (Acta Pharmaceutica Sinica. B, 2023):

How the values were obtained:
[1] = biological target: T1, hD2R (Homo sapiens, UniProt P14416); test: biochemical; format: binding; conditions: for inhibition at 10 µM: read-out: % inhibition at 10 μmol/L hD2
[2] = biological target: T2, hD3R (Homo sapiens, UniProt P35462); test: biochemical; format: binding; conditions: for inhibition at 10 µM: read-out: % inhibition at 10 μmol/L hD3, 10 μmol/L test compound
[3] = biological target: hD1 (Homo sapiens, UniProt P21728); test: biochemical; format: binding
[4] = biological target: hD4 (Homo sapiens, UniProt P21917); test: biochemical; format: binding
Chain of hD4 (P21917 whole entry): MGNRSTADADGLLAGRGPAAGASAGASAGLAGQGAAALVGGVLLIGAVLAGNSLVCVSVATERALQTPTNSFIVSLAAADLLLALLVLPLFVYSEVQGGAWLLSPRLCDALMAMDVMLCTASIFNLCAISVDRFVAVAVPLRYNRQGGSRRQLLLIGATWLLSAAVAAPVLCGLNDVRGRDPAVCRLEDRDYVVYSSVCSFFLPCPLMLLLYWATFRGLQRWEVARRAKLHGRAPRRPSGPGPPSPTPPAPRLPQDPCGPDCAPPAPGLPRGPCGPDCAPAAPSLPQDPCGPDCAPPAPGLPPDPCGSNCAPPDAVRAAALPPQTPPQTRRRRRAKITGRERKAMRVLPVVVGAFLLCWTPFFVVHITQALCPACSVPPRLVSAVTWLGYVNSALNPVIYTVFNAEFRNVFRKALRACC

[5] = biological target: hD5 (Homo sapiens, UniProt P21918); test: biochemical; format: binding
Chain of hD5 (P21918 whole entry): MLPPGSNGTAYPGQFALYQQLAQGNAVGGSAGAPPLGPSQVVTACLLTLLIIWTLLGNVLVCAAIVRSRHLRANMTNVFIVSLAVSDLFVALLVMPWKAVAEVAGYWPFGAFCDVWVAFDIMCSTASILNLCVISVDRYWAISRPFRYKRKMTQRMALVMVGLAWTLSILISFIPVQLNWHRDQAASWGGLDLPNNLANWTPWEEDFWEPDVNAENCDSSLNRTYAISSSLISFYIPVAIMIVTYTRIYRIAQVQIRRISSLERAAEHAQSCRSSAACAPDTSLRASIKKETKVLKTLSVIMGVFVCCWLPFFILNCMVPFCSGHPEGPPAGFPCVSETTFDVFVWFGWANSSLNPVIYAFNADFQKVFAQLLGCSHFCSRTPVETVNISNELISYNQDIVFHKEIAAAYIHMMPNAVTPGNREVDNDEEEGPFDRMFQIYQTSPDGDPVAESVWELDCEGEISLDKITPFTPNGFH

[6] = biological target: h5-HT1A (Homo sapiens, UniProt P08908); test: biochemical; format: binding
Chain of h5-HT1A (P08908 whole entry): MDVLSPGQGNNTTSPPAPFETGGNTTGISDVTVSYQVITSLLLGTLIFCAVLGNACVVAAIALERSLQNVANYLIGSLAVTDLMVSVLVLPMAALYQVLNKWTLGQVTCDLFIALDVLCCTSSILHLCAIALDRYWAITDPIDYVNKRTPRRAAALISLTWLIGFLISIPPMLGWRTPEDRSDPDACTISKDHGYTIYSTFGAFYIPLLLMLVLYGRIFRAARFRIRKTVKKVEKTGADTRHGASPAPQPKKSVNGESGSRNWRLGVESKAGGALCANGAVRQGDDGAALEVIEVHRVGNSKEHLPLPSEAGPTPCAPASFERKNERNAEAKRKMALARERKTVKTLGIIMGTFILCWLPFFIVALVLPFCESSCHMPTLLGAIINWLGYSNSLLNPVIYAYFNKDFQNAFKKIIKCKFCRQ

[7] = biological target: h5-HT1B (Homo sapiens, UniProt P28222); test: biochemical; format: binding
[8] = biological target: h5-HT2A (Homo sapiens, UniProt P28223); test: biochemical; format: binding
[9] = biological target: h5-HT2C (Rattus norvegicus, UniProt P08909); test: biochemical; format: binding; conditions: Table 6 selectivity profile
Chain of h5-HT2C (P08909 33-460): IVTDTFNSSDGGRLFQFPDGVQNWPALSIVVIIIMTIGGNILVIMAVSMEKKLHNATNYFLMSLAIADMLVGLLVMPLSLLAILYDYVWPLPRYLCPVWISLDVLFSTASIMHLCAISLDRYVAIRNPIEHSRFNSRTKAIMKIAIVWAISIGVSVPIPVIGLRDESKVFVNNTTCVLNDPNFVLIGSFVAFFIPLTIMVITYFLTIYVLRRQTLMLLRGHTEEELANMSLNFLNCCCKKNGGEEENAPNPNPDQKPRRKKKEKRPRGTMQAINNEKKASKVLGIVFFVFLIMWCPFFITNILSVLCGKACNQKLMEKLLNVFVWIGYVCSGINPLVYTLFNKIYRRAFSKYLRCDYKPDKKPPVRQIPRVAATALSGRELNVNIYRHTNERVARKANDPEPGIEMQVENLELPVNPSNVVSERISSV

[10] = biological target: h5-HT6 (Homo sapiens, UniProt P50406); test: biochemical; format: binding
[11] = biological target: hH1 (Cavia porcellus, UniProt P31389); test: biochemical; format: binding, guinea pig
[12] = biological target: hα1; format: binding, rat; conditions: read-out: Ki hα1; Table 6 selectivity profile
[13] = biological target: hDAT (Rattus norvegicus, UniProt P23977); test: biochemical; format: binding; conditions: Table 6 selectivity profile
Chain of hDAT (P23977 whole entry): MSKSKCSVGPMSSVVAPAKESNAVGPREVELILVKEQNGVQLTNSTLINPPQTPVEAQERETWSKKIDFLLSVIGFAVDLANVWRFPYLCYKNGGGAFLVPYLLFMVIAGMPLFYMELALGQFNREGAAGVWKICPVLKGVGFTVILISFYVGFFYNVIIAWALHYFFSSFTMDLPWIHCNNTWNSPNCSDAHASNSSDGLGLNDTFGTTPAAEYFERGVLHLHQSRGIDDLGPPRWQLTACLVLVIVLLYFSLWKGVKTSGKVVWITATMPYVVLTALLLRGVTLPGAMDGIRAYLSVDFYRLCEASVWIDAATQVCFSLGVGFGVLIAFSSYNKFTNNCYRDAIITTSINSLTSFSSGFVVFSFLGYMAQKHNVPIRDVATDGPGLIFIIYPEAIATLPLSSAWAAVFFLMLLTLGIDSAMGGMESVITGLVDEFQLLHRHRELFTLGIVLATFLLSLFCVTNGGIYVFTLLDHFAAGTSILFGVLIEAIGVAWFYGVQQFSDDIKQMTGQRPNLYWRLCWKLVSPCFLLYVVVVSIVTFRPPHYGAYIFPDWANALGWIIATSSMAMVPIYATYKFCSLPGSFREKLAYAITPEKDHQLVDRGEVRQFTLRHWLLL

[14] = biological target: hNET (Homo sapiens, UniProt P23975); test: biochemical; format: binding
Chain of hNET (P23975 whole entry): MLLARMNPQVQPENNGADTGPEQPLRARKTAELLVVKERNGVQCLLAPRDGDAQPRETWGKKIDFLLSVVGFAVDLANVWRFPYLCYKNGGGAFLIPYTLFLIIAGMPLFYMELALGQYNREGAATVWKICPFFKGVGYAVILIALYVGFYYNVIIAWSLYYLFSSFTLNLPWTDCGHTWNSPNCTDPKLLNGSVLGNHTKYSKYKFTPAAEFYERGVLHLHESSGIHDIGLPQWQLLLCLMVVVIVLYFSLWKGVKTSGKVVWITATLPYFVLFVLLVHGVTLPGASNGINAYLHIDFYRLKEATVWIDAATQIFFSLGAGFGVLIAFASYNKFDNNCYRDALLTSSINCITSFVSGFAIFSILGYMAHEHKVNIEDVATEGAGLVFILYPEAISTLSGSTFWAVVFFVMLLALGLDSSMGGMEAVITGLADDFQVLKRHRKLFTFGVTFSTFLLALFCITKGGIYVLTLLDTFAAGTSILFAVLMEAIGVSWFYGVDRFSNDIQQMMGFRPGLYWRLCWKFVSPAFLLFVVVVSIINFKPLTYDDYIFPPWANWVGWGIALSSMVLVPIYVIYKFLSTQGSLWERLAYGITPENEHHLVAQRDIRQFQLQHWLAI

[15] = biological target: hSERT (Homo sapiens, UniProt P31645); test: biochemical; format: binding
[16] = biological target: T2, hD3R; test: ERK1/2 phosphorylation; format: cell-based; conditions: for effect on ERK1/2 phosphorylation mediated by hD3R, compound alone (agonist mode): CHO-hD3R cells, quinpirole at 20 μmol/L; for competitive antagonism of ERK1/2 phosphorylation mediated by D3R: in the presence of 20 μmol/L dopamine
[17] = biological target: T1, hD2R; format: cell-based
[18] = biological target: hERG channel (Homo sapiens, UniProt Q12809); test: hERG channel automated patch clamp; format: cell-based
Chain of hERG channel (Q12809 whole entry): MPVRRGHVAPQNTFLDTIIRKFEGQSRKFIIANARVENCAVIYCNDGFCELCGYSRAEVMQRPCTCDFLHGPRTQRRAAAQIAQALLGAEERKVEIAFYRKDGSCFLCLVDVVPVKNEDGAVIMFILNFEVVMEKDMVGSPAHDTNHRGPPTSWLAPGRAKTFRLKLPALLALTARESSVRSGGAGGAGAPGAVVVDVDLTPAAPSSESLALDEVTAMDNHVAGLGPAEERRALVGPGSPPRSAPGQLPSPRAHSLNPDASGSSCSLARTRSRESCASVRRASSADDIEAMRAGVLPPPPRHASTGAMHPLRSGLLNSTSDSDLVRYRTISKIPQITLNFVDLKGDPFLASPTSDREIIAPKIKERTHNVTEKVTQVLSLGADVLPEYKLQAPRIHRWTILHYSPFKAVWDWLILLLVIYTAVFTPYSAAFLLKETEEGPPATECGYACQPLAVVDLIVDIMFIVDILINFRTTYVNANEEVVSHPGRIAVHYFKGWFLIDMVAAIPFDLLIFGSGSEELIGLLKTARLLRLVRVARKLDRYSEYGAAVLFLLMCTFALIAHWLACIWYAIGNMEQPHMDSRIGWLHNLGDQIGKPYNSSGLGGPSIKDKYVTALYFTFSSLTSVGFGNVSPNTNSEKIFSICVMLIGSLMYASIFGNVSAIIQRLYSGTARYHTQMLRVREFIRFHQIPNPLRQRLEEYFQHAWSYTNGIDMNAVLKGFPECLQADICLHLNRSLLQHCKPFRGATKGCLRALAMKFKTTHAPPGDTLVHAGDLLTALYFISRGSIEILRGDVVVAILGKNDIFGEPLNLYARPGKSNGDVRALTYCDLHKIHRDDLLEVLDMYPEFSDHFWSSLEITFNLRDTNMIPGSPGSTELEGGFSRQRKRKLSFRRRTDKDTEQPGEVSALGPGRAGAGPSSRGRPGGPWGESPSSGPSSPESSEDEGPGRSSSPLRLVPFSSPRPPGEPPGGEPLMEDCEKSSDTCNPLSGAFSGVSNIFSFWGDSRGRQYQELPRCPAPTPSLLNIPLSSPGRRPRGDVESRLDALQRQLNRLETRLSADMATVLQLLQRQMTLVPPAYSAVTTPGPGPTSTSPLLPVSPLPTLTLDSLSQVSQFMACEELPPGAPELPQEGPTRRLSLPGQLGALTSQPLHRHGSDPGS

[19] = test system: PC12 cells; test: CCK8 cytotoxicity test, PC12; format: cell-based; conditions: 24 h
[20] = Pharmacokinetics study in ICR mice; format: in vivo, mouse; conditions: for half-life: t1/2, ICR mice
[21] = BBB penetration study in ICR mice; format: in vivo, mouse
[22] = test system: mice; test: Acute toxicity assay in mice; format: in vivo, mouse; conditions: i.p., up to 600 mg/kg
[23] = test system: mice; test: Catalepsy test in mice; format: in vivo, mouse; conditions: for Catalepsy peak effect (percent of cataleptic animals) / catalepsy under all tested doses: i.p.; for catalepsy under all tested doses: 23j up to 240 mg/kg, 36a/b/f up to 480 mg/kg
[24] = test system: ICR mice; test: Apomorphine-induced climbing; format: in vivo, mouse; conditions: i.p., apomorphine 1.0 mg/kg s.c.
[25] = Weight gain on repeated oral dosing; format: in vivo, mouse; conditions: mice, p.o. once daily 30 days; 23j, 36b 30 mg/kg; RPD 1 mg/kg
[26] = test system: mice; test: Serum prolactin after repeated oral dosing; format: in vivo, mouse; conditions: after 30 days p.o. dosing, 23j, 36b 30 mg/kg, RPD 1 mg/kg
[27] = test system: ICR mice; test: Spontaneous locomotor test; conditions: compounds 30 mg/kg i.p., RPD 1 mg/kg, 15 min
[28] = test system: ICR mice; test: MK-801-induced hyperactivity; conditions: 3 mg/kg i.p.
[29] = test system: HEK293T cells; test: CCK8 cytotoxicity test, HEK293T; format: cell-based; conditions: 24 h, CCK8, compared with RPD
[30] = test system: BV2 cells; test: CCK8 cytotoxicity test, BV2; format: cell-based; conditions: 24 h, CCK8, compared with RPD
[31] = test system: ICR mice; test: Tail suspension test; format: in vivo, mouse; conditions: 36b 3, 10, 30 mg/kg, DLX 15 mg/kg
[32] = test system: ICR mice; test: Forced swimming test; format: in vivo, mouse; conditions: 36b 3, 10, 30 mg/kg, DLX 15 mg/kg
[33] = Ki hD3, three experiments, means ± SEM
[34] = hERG inhibition IC50, patch clamp, tested three times
[35] = ICR, mouse, plasma, iv, 3 mg/kg
[36] = ICR, mouse, plasma, po, 10 mg/kg

T1 sequence (P14416 whole entry): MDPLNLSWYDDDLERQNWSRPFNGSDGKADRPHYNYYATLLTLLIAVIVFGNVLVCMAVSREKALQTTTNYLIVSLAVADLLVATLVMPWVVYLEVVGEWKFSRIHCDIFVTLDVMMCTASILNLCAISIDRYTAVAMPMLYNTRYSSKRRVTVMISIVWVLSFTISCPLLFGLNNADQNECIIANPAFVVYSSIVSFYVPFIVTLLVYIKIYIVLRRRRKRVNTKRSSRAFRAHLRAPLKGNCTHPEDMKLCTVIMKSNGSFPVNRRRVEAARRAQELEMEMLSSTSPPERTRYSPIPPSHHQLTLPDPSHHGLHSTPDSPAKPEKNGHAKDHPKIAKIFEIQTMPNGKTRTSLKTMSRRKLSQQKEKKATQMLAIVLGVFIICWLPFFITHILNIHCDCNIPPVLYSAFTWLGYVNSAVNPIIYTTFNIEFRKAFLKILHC
T2 sequence (P35462 whole entry): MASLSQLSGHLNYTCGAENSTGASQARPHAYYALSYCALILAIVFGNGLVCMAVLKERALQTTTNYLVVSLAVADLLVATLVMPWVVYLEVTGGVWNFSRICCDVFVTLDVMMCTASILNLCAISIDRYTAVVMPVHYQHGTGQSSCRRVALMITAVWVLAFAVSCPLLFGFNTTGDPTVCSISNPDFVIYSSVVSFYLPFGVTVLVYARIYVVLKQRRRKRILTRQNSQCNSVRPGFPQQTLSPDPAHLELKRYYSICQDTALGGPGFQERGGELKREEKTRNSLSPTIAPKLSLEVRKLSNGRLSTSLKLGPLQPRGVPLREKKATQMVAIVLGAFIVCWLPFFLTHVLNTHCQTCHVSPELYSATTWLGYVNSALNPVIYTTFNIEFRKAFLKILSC

CCn1c2ccccc2c2cc(CNCCCCNC(=O)c3ccc(-c4cccnc4)cc3)ccc21 [23j]
Ki [1]: > 10 µM | inhibition at 10 µM [1]: 12.4 ± 5.8% | improvement of D3R binding affinity versus the phenyl group (23g) [2]: approximately 10 fold | Ki ([2]; Ki hD3, Table 6 selectivity profile): 0.0168 µM | Ki [2, 33]: 0.0139 ± 0.0034 µM | inhibition at 10 µM [2]: 107.3 ± 0.3% | Ki [3]: > 10 µM | Ki [4]: > 10 µM | Ki [5]: > 10 µM | Ki [6]: 0.579 µM | Ki [7]: 0.172 µM | Ki [8]: 0.214 µM | Ki [9]: 2.23 µM | Ki [10]: 8.72 µM | Ki [11]: 5.2 µM | Ki [12]: 8.35 µM | Ki [13]: 6.1 µM | Ki [14]: > 10 µM | Ki [15]: 5.41 µM | effect on ERK1/2 phosphorylation mediated by hD3R, compound alone (agonist mode) [16]: no influence | competitive antagonism of ERK1/2 phosphorylation mediated by D3R [16]: dose-dependently inhibit | effect on ERK1/2 phosphorylation mediated by hD2R, compound alone (agonist mode) [17]: weak partial agonism | IC50 [18, 34]: 2.46 µM | cytotoxicity in PC12 cells [19]: significant cytotoxicity at high concentrations | t1/2 ([20]; ICR mice, 10 mg/kg p.o., single dose, 10 mg/kg): 70.2 min | AUC [20, 35]: 326 ng·h/mL | Cmax [20, 35]: 567 ng/mL | MRT [20, 35]: 28.8 min | Tmax [20, 35]: 4.8 min | Vd [20, 35]: 4.44 L/kg | clearance [20, 35]: 153 mL/min/kg | half-life ([20]; ICR, mouse, plasma, iv, 3 mg/kg, 3 mg/kg i.v., single dose): 31.8 min | bioavailability ([20]; ICR, mouse, plasma, oral, 10 mg/kg): 8.7% | AUC [20, 36]: 94.4 ng·h/mL | Cmax [20, 36]: 78.8 ng/mL | MRT [20, 36]: 52.2 min | Tmax [20, 36]: 10.2 min | half-life ([20]; ICR, mouse, plasma, po, 10 mg/kg, 10 mg/kg p.o., single dose): 66 min | Brain/plasma ratio at 2.0 h ([21]; 3 mg/kg i.v., 3 mg/kg): 1.60 | Brain concentration at 0.5 h ([21]; 10 mg/kg p.o.): too low to test | concentration at 0.5 h ([21]; ICR, mouse, brain, iv, 3 mg/kg, Brain concentration at 0.5 h, 3 mg/kg i.v.): 98 ng/mL | concentration at 2 h ([21]; ICR, mouse, brain, iv, 3 mg/kg, Brain concentration at 2.0 h, 3 mg/kg i.v.): 11.5 ng/mL | Kp at 0.5 h ([21]; ICR, mouse, brain, iv, 3 mg/kg, Brain/plasma ratio at 0.5 h, 3 mg/kg i.v.): 0.55 | concentration at 0.5 h ([21]; ICR, mouse, plasma, iv, 3 mg/kg, Plasma concentration at 0.5 h, 3 mg/kg i.v.): 180 ng/mL | concentration at 2 h ([21]; ICR, mouse, plasma, iv, 3 mg/kg, Plasma concentration at 2.0 h, 3 mg/kg i.v.): 7.17 ng/mL | concentration at 0.5 h ([21]; ICR, mouse, plasma, po, 10 mg/kg, Plasma concentration at 0.5 h, 10 mg/kg p.o.): 53.4 ng/mL | concentration at 2 h ([21]; ICR, mouse, plasma, po, 10 mg/kg, Plasma concentration at 2.0 h, 10 mg/kg p.o.): 2.89 ng/mL | acute toxicity / tolerance [22]: dose-dependent lethal toxicity from 240 to 600 mg/kg | Catalepsy MED i.p. (minimum effective dose) [23]: ≥240.0 mg/kg | Catalepsy peak effect (percent of cataleptic animals) [23]: 0.0% | catalepsy under all tested doses [23]: did not elicit catalepsy | inhibition of apomorphine-induced climbing [24]: dose-dependently inhibit | body weight / weight gain [25]: No influence on body weight | serum prolactin level [26]: nonsignificant serum prolactin change | effect on spontaneous locomotion [27]: no influences | inhibition of MK-801-induced hyperactivity at 3 mg/kg [28]: did not show the inhibition activity

Cn1c2c(c3ccccc31)CN(CCCCNC(=O)c1ccc(-c3ccccc3)cc1)CC2 [36f]
Ki [1]: > 10 µM | inhibition at 10 µM [1]: -20.7 ± 4.9% | Ki [2, 33]: 0.0041 ± 0.0003 µM | inhibition at 10 µM [2]: 104 ± 1.4% | effect on ERK1/2 phosphorylation mediated by hD3R, compound alone (agonist mode) [16]: no influence | competitive antagonism of ERK1/2 phosphorylation mediated by D3R [16]: dose-dependently inhibit | effect on ERK1/2 phosphorylation mediated by hD2R, compound alone (agonist mode) [17]: no functional affects | IC50 ([18]; hERG IC50, patch clamp): > 40 µM | IC50 [18, 34]: 46.9 µM | effect on the viability of HEK293T [29]: less effects | effect on the viability of BV2 [30]: less effects | acute toxicity / tolerance [22]: well tolerant | Catalepsy MED i.p. (minimum effective dose) [23]: ≥480.0 mg/kg | Catalepsy peak effect (percent of cataleptic animals) [23]: 0.0% | catalepsy under all tested doses [23]: did not elicit catalepsy | effect on spontaneous locomotion [27]: no influences | inhibition of MK-801-induced hyperactivity at 3 mg/kg [28]: reduced the distance of mice movement

CNCC[C@H](Oc1cccc2ccccc12)c1cccs1 [DLX, duloxetine, reference compound]
immobility time in the TST [31]: robust decrease | FST latency [32]: failed to prolong | immobility time of FST [32]: robust decrease
